“Also recorded” adds a separate entry of the source. Like-named read-outs stand apart in the source and are kept apart here.
Columns and labels:
[1] = system: primary murine bone-marrow neutrophils; test: Live cell imaging viability of primary bone-marrow neutrophils; settings: for effect on mouse neutrophil viability (words): G-CSF- or GM-CSF-primed, inhibitors at 1 μM, over 24 hours
Text: Using a high-throughput live cell imaging approach reported previously [15], we examined the effect of the kinase inhibitors on the viability of bone marrow neutrophils to determine their potential to cause neutropenia (Figure 2). Because G-CSF and GM-CSF are dominant regulators of granulopoiesis and neutrophil survival, and are commonly used in a clinical setting to mobilize hematopoietic stem cells into the blood and increase neutrophil production [27–31], we treated cells with these cytokines immediately prior to drug exposure. The addition of either cytokine prevents constitutive neutrophil apoptosis thereby increasing the window for detection of changes in viability induced by drug treatments.
For all above, data represent mean ± SEM from three independent samples.
Mouse bone marrow neutrophils were prepared as described [15]. Neutrophils were resuspended in phenol red-free DMEM/10% FBS for imaging studies. The purity of neutrophil preparations was routinely 96% ± 4% (Mean ± SD, n = 50) as assessed by cytology following May-Grünwald/Giemsa staining.
Kinase inhibitors were purchased from SYN kinase (Melbourne, Australia) and were used at 1 μM, unless otherwise specified, with dilutions performed in assay buffer containing 0.1% DMSO.
Viability was monitored using 2 μg/mL PI (Sigma). Images were captured every 30-60 min by the Zeiss Axiovert 200M Microscope at 37 °C/10% CO2. Quantitative analysis was performed using a custom-scripted MetaMorph (Molecular Devices) journal suite incorporating the count nuclei function, reconstruction & subtraction functions and Integrated Morphometry Analysis to select and analyze cells of interest.

[2] = system: panel of human leukemia cell lines; test: Cell Titer Glo cell viability assay, 48 h, statements across the whole panel; settings: for cytotoxicity to leukemia cell lines: 12 leukemia cell lines; for IC50: Homo sapiens
Method: (§1) The activity of the kinase inhibitor collection against a panel of human leukemia cell lines was determined in cell viability assays run over 48 h using the Cell Titer Glo reagent.
(§2) Figure 1 Effects of kinase inhibition on the proliferation of leukemia cells A. Human leukemia cell lines were treated with duplicate serial dilutions of kinase inhibitors and the effect on cell viability was determined by Cell Titer Glo assay after 48 hours. Data shown represents the mean IC50 of each condition from 2 independent experiments. HL-60 cells were treated with serial dilutions of mTor/PI3K B. and MEK C. inhibitors and the effect on cell viability was determined after 48 hours. Data shown is the mean ± SEM of 3 independent experiments.
(§3) Leukemia and lymphoma cell lines were grown in RPMI containing 10% FCS. […] Cell lines are routinely tested for mycoplasma and genotyped by short tandem repeating (STR) profiling to confirm identity.
(§4) Compounds were obtained from SynMedChem and dissolved at […] in DMSO. Serial 2-fold dilutions of each compound were prepared in DMSO using a liquid handling robot (Janus, Perkin Elmer). Each dilution (100nL) was transferred to duplicate tissue culture plates containing 50 μL of media containing 5 × 10^3 cells using a 384 well pin tool. Cells were incubated for 48 h and cell viability was determined using Cell Titer Glow reagents as described by the manufacturer (Promega). Data was acquired using a luminescent plate reader (Envision, Perkin Elmer) and analysed using Activity Base (IDBS, Guilford, UK) and visualised using Spotfire (TIBCO, Palo Alto, CA) as described previously. Each cell line was assayed in independent experiments on at least two occasions. […] Serial 2-fold dilutions of each compound were prepared in media containing 0.2% DMSO and 50 μl of each dilution was added to 10^4 cells in 50 μl of media. Cells were incubated for 48 h and cell viability was determined using Cell Titer Glow assay as described above.

[3] = system: human peripheral blood neutrophils; test: Human neutrophil viability by propidium iodide exclusion, flow cytometry; settings: for sensitivity of human neutrophils at 1μM: 18 h; for sensitivity of human neutrophils: G-CSF or GM-CSF primed 1 h, treated 18 h, dose range
Method: Figure 3 Assessment of human neutrophil viability in response to kinase inhibitor treatment Human peripheral blood neutrophils from three healthy donors were primed with G-CSF or GM-CSF for 1 hour before addition of selected kinase inhibitors (as shown) or DMSO (control) at concentrations as indicated. Neutrophil viability was assessed after 18 hours of treatment, by propidium iodide exclusion measured by flow cytometry. Mean ± SEM shown.
Donors were 18 years of age or older and had not taken anti-inflammatory medications during the 2 weeks before donating. […] Human neutrophils were then isolated on a three-layer Percoll gradient as described for mouse bone marrow neutrophils as described. […] Neutrophils were resuspended in DMEM/10%FBS, and primed with 10 ng/mL recombinant human G-CSF (Amgen) or 10 ng/mL recombinant human GM-CSF (Leukine, Sargramostim) for 1 h. Compounds or DMSO carrier were added for […]. Viability was assessed by staining neutrophils with propidium iodide and analyzing on a BD Fortessa.

[4] = system: EOL-1; test: Cell Titer Glo cell viability assay, 48 h; assay type: cell-based, human; settings: 48 h, mean of 2 independent experiments, 0 = less than 10 nM, cell line not given, read-out: IC50 of inhibitors on cell lines, m (mean)
Method: as §1
as §2, with “Data shown represents the mean IC50 of each condition from 2 independent experiments.” left out
as §3, §4

[5] = system: HEL.92.1.7; test: Cell Titer Glo cell viability assay, 48 h; assay type: cell-based, human; settings: 48 h, mean of 2 independent experiments, 0 = less than 10 nM, cell line not given, read-out: IC50 of inhibitors on cell lines, m (mean)
Method: as §1
as §2, with “Data shown represents the mean IC50 of each condition from 2 independent experiments.” left out
as §3, §4

[6] = system: HL-60; test: Cell Titer Glo cell viability assay, 48 h; assay type: cell-based, human; settings: 48 h, mean of 2 independent experiments, 0 = less than 10 nM, cell line not given, read-out: IC50 of inhibitors on cell lines, m (mean)
Method: as §1
as §2, with “Data shown represents the mean IC50 of each condition from 2 independent experiments.” left out
as §3, §4

[7] = system: JURKAT; test: Cell Titer Glo cell viability assay, 48 h; assay type: cell-based, human; settings: 48 h, mean of 2 independent experiments, 0 = less than 10 nM, cell line not given, read-out: IC50 of inhibitors on cell lines, m (mean)
Method: as §1
as §2, with “Data shown represents the mean IC50 of each condition from 2 independent experiments.” left out
as §3, §4

[8] = system: K562; test: Cell Titer Glo cell viability assay, 48 h; assay type: cell-based, human; settings: 48 h, mean of 2 independent experiments, 0 = less than 10 nM, cell line not given, read-out: IC50 of inhibitors on cell lines, m (mean)
Method: as §1
as §2, with “Data shown represents the mean IC50 of each condition from 2 independent experiments.” left out
as §3, §4

[9] = system: KU-812; test: Cell Titer Glo cell viability assay, 48 h; assay type: cell-based, human; settings: 48 h, mean of 2 independent experiments, 0 = less than 10 nM, cell line not given, read-out: IC50 of inhibitors on cell lines, m (mean)
Method: as §1
as §2, with “Data shown represents the mean IC50 of each condition from 2 independent experiments.” left out
as §3, §4

[10] = system: MEG-01; test: Cell Titer Glo cell viability assay, 48 h; assay type: cell-based, human; settings: 48 h, mean of 2 independent experiments, 0 = less than 10 nM, cell line not given, read-out: IC50 of inhibitors on cell lines, m (mean)
Method: as §1
as §2, with “Data shown represents the mean IC50 of each condition from 2 independent experiments.” left out
as §3, §4

[11] = system: MOLT4; test: Cell Titer Glo cell viability assay, 48 h; assay type: cell-based, human; settings: 48 h, mean of 2 independent experiments, 0 = less than 10 nM, cell line not given, read-out: IC50 of inhibitors on cell lines, m (mean)
Method: as §1
as §2, with “Data shown represents the mean IC50 of each condition from 2 independent experiments.” left out
as §3, §4

[12] = system: MV4;11; test: Cell Titer Glo cell viability assay, 48 h; assay type: cell-based, human; settings: 48 h, mean of 2 independent experiments, 0 = less than 10 nM, cell line not given, read-out: IC50 of inhibitors on cell lines, m (mean)
Method: as §1
as §2, with “Data shown represents the mean IC50 of each condition from 2 independent experiments.” left out
as §3, §4

[13] = system: OCI-AML3; test: Cell Titer Glo cell viability assay, 48 h; assay type: cell-based, human; settings: 48 h, mean of 2 independent experiments, 0 = less than 10 nM, cell line not given, read-out: IC50 of inhibitors on cell lines, m (mean)
Method: as §1
as §2, with “Data shown represents the mean IC50 of each condition from 2 independent experiments.” left out
as §3, §4

[14] = system: THP-1; test: Cell Titer Glo cell viability assay, 48 h; assay type: cell-based, human; settings: 48 h, mean of 2 independent experiments, 0 = less than 10 nM, cell line not given, read-out: IC50 of inhibitors on cell lines, m (mean)
Method: as §1
as §2, with “Data shown represents the mean IC50 of each condition from 2 independent experiments.” left out
as §3, §4

[15] = system: U937; test: Cell Titer Glo cell viability assay, 48 h; assay type: cell-based, human; settings: 48 h, mean of 2 independent experiments, 0 = less than 10 nM, cell line not given, read-out: IC50 of inhibitors on cell lines, m (mean)
Method: as §1
as §2, with “Data shown represents the mean IC50 of each condition from 2 independent experiments.” left out
as §3, §4

[16] = read-out: IC50 across most of the cell lines examined

O=C(Nc1c[nH]nc1-c1nc2cc(CN3CCOCC3)ccc2[nH]1)NC1CC1 [AT9283]
effect on mouse neutrophil viability (words) [1]: significantly affected neutrophil viability | effect on mouse neutrophil viability (words) ([1]; listed as AT-9283): cytotoxicity

CC[C@@H]1C(=O)N(C)c2cnc(Nc3ccc(C(=O)NC4CCN(C)CC4)cc3OC)nc2N1C1CCCC1 [(R)-BI-2536]
cytotoxicity to leukemia cell lines [2]: potently cytotoxic to all lines examined | IC50 ([2]; read-out: IC50 across all cell lines examined): < 0.3 µM | IC50 [2, 16]: ≤ 0.01 µM | sensitivity of human neutrophils at 1μM [3]: not sensitive | sensitivity of human neutrophils [3]: sensitive

Oc1cccc(-c2nc(N3CCOCC3)c3oc4ncccc4c3n2)c1 [PI103]
IC50 ([4]; Homo sapiens, EOL1): 0.22 µM | IC50 ([5]; Homo sapiens): 1.89 µM | IC50 ([6]; Homo sapiens): 0.29 µM | IC50 ([7]; Homo sapiens): 0.96 µM | IC50 ([8]; Homo sapiens): 2.29 µM | IC50 ([9]; Homo sapiens, KU812): 3.35 µM | IC50 ([10]; Homo sapiens): 1.52 µM | IC50 ([11]; Homo sapiens, MOLT-4): 0.21 µM | IC50 ([12]; Homo sapiens): 0.2 µM | IC50 ([13]; Homo sapiens, OCI-AML-3): 0.16 µM | IC50 ([14]; Homo sapiens): 0.88 µM | IC50 ([15]; Homo sapiens, U-937): 0.26 µM | effect on mouse neutrophil viability (words) [1]: some neutrophil toxicity

NC(=O)Nc1cc(-c2cccc(F)c2)sc1C(=O)N[C@H]1CCCNC1 [AZD7762]
cytotoxicity to leukemia cell lines [2]: potently cytotoxic to all lines examined | IC50 [2, 16]: ≤ 0.01 µM | sensitivity of human neutrophils at 1μM [3]: not sensitive | sensitivity of human neutrophils [3]: sensitive

Cc1cc(Nc2nc(N[C@@H](C)c3ncc(F)cn3)ncc2Cl)n[nH]1 [AZD1480]
effect on mouse neutrophil viability (words) [1]: significantly affected neutrophil viability | effect on mouse neutrophil viability (words) ([1]; listed as AZD-1480): cytotoxicity

CN(C)CC[C@H](CSc1ccccc1)Nc1ccc(S(=O)(=O)NC(=O)c2ccc(N3CCN(Cc4ccccc4-c4ccc(Cl)cc4)CC3)cc2)cc1[N+](=O)[O-] [ABT-737]
effect on mouse neutrophil viability (words) [1]: no impact on mouse neutrophil viability; also recorded: minimal effects on neutrophils

C[C@@H]1CCN(C(=O)CC#N)C[C@@H]1N(C)c1ncnc2[nH]ccc12 [CP690550]
effect on mouse neutrophil viability (words) [1]: did not

CCc1c2c(nc3ccc(O)cc13)-c1cc3c(c(=O)n1C2)COC(=O)[C@]3(O)CC [SN-38]
effect of chemotherapeutics on neutrophil viability ([1]; GM-CSF-primed, dose-dependent, Figure 5D): potently decreased neutrophil viability

Cn1c(=O)n(-c2ccc(C(C)(C)C#N)cc2)c2c3cc(-c4cnc5ccccc5c4)ccc3ncc21 [BEZ-235]
cytotoxicity to leukemia cell lines [2]: potently cytotoxic to all lines examined | IC50 [2, 16]: ≤ 0.01 µM | sensitivity of human neutrophils at 1μM [3]: not sensitive | sensitivity of human neutrophils [3]: sensitive | effect on mouse neutrophil viability (words) [1]: minimal impact

Cc1cnc(Nc2ccc(OCCN3CCCC3)cc2)nc1Nc1cccc(S(=O)(=O)NC(C)(C)C)c1 [TG-101348]
effect on mouse neutrophil viability (words) [1]: cytotoxicity

CN1CC[C@H](c2c(O)cc(O)c3c(=O)cc(-c4ccccc4Cl)oc23)[C@H](O)C1 [Flavopiridol]
effect on mouse neutrophil viability (words) [1]: induced rapid cell death | effect on mouse neutrophil viability (words) ([1]; listed as flavopiridol): significant impact on neutrophil viability

N#CCNC(=O)c1ccc(-c2ccnc(Nc3ccc(N4CCOCC4)cc3)n2)cc1 [CYT387]
effect on mouse neutrophil viability (words) [1]: did not

Cc1cc(Nc2nc(N[C@@H](C)c3ccc(F)cc3)c(C#N)cc2F)n[nH]1 [AZ-960]
effect on mouse neutrophil viability (words) [1]: significantly affected neutrophil viability

Cc1c[nH]c(/C=C2\C(=O)Nc3ccccc32)c1CCC(=O)O [SU-5402]
IC50 [4]: 1.43 µM | IC50 [5]: > 10 µM | IC50 [6]: > 10 µM | IC50 [7]: > 10 µM | IC50 [8]: > 10 µM | IC50 [9]: 9.28 µM | IC50 [10]: > 10 µM | IC50 [11]: > 10 µM | IC50 [12]: 0.73 µM | IC50 [13]: > 10 µM | IC50 [14]: > 10 µM | IC50 [15]: > 10 µM

Cc1cc(Nc2cc(N3CCN(C)CC3)nc(Sc3ccc(NC(=O)C4CC4)cc3)n2)[nH]n1 [VX-680]
IC50 ([4]; Homo sapiens, EOL1): 0.07 µM | IC50 ([5]; Homo sapiens): 7.99 µM | IC50 ([6]; Homo sapiens): 2.45 µM | IC50 ([7]; Homo sapiens): 4.96 µM | IC50 ([8]; Homo sapiens): 0.43 µM | IC50 ([9]; Homo sapiens, KU812): 0.18 µM | IC50 ([10]; Homo sapiens): 0.53 µM | IC50 ([11]; Homo sapiens, MOLT-4): 2.59 µM | IC50 ([12]; Homo sapiens): 0.05 µM | IC50 ([13]; Homo sapiens, OCI-AML-3): 0.8 µM | IC50 ([14]; Homo sapiens): 5.75 µM | IC50 ([15]; Homo sapiens, U-937): 5.46 µM

Cc1[nH]c(/C=C2\C(=O)Nc3ccccc32)c(C)c1CCC(=O)O [SU-6668]
IC50 ([4]; Homo sapiens, EOL1): 0.84 µM | IC50 ([5]; Homo sapiens): > 10 µM | IC50 ([6]; Homo sapiens): > 10 µM | IC50 ([7]; Homo sapiens): > 10 µM | IC50 ([8]; Homo sapiens): 8.11 µM | IC50 ([9]; Homo sapiens, KU812): > 10 µM | IC50 ([10]; Homo sapiens): > 10 µM | IC50 ([11]; Homo sapiens, MOLT-4): > 10 µM | IC50 ([12]; Homo sapiens): 5.11 µM | IC50 ([13]; Homo sapiens, OCI-AML-3): > 10 µM | IC50 ([14]; Homo sapiens): > 10 µM | IC50 ([15]; Homo sapiens, U-937): > 10 µM

From publication PMC5601625, “Defining a therapeutic window for kinase inhibitors in leukemia to avoid neutropenia” (Oncotarget, 2017)
